Measurements published in patent publication US5393786A, “Method for treating inflammation, ischemia-induced cell damage and muscular dystrophy” (priority 1993, dated 1995).
Counter-ions that a name gives are not always drawn. Like-named read-outs stand apart in the source and are kept apart here.

Tests used:
[1] = system: striatal cell layer of the striatum; test: Stroke model in rats (four-vessel occlusion), striatal damage; type: in vivo, male Wistar rats; details: scale 0-3, mean ± SE
Excerpt: (§1) Strokes were produced in rats by occluding the four arteries that supply blood to the brain according to the following procedure. Male Wistar rats (250-280 g; Hilltop Laboratories, Scottsdale, Pa.) were anesthetized with metofane and placed into a stereotaxic instrument. A longitudinal incisio was made on the dorsal surface of the neck. The neck muscles were reflected to expose the dorsal surface of the spinal column. The two vertebral arteries were exposed where they pass through the first cervica vertebra. Both arteries were permanently occluded by the application of electrocautery. After coagulation of the vertebral arteries, the rat was removed from the stereotaxic instrument and the surgical wound was sutured. Two longitudinal incisions were then made on the ventral surface of the neck. The two common carotid arteries were exposed and dissected free from surrounding nerves and connective tissue. Reversible atraumatic clamps, fabricated mainly from silicon rubber tubing, were placed around each carotid artery in a manner such that the vessels were not traumatize or occluded. The clamps were externalized through the ventral neck incision. A suture was also placed through the neck dorsal to the carotids, esophagus and trachea, and tied loosely behind the neck. This suture is tied tightly at the time ischemia is induced in order to restrict collateral circulation reaching the brain through the dorsal muscles of the neck. The surgical wounds were then closed. After the surgery, the rats were allowed to recover for 24 hours (free access to water, but no food during this period).
(§2) On the day of testing, test compounds were administered at various times before stroke induction. Strokes (cerebral ischemia) were induced by tightening the clamps around the carotids, thereby stopping blood flow in the carotids. Rats in which strokes were successfully produced lost the righting reflex and became unresponsive to stimuli. Collateral circulatio through the dorsal neck muscles was then restricted by tightening the previously implanted suture. […] After 30 minutes of ischemia, the carotid clamps wer released, the neck suture was loosened, and blood flow to the brain was restored. Following the period of ischemia, the rats were allowed free access to food and water. Rats were again treated with test compounds at various times after the stroke. On the third day after the stroke the animals were sacrificed and their brains were removed, frozen and sectioned through the striatum and hippocampus. Sections were mounted on glass slides and stained with hematoxylin and eosin.
(§3) Two of the areas of the brain that are most susceptible to ischemia induce damage, both in rats and humans, are the CA1 pyramidal cell layer of the hippocampus and the striatal cell layer of the striatum. In animals that remain unresponsive for the 30 minute period of ischemia, the CA1 pyramidal cell layer and the striatal cell layer are completely destroyed. These layers of cells were examined microscopically in histological sections prepared from the hippocampus and striatum. Brain damage was rated according to the following scale:
(§4) 0=no damage, completely intact cell layer
(§5) 1=mild damage, onethird of cell layer dead
(§6) 2=moderate damage, twothirds of cell layer dead
(§7) 3=severe damage, complete destruction of cell layer
(§8) Damage in 10-12 sections from each brain was assessed in order to obtain a accurate estimate of damage. An average damage score was calculated for each treatment group. Scores from treated groups were compared statistically with scores from control groups which received only the vehicle used to suspend the compounds. The level of significance was determined using the Mann WhitneyU-test.

[2] = system: hippocampal CA1 pyramidal cell layer; test: Stroke model in rats (four-vessel occlusion), hippocampal CA1 damage; details: for Damage Score, Hippocampus: scale 0-3, mean ± SE
Excerpt: as §1, §2, §3, §4, §5, §6, §7, §8

[3] = system: adjuvant-induced arthritis (uninjected hind paw); test: Developing Adjuvant-Induced Arthritis Test in Rats; type: in vivo, male Lewis-Wistar rats; details: po, 720 h, AUC days 16-30; for inhibition in vivo at 50 mg/kg: 50 mg/kg rat weight × 29, p.o. once daily
[4] = system: ischemia-induced cell damage caused by middle cerebral artery occlusion; test: Middle Cerebral Artery Occlusion Stroke Model; type: in vivo, male spontaneously hypertensive rats; details: for toxicity of higher doses (footnote ++): doses above 10/5 mg/kg i.v.
Excerpt: Strokes were also produced in rats by occluding the middle cerebral artery according to the following procedure. Male spontaneously hypertensive rats were housed in groups of three to four per cage and allowed free access to food and water. The animals were anesthetized with a mixture of 2.5% halothane and air. The anesthetized rats then underwent the following surgical procedure.
A femoral artery of each rat was cannulated to monitor mean arterial pressure and a jugular cannula was inserted in order to provide a means for administering test compounds intravenously. […] The ventral neck area and the area behind each animal's right eye were shaved and washed with antiseptic solution. The right common carotid artery was dissected free of connective tissue through a midline cervical incision and the vessel permanently occluded with a silk ligature. Next, a 1 cm incision perpendicular to, and bisecting a line between the lateral canthus of the right eye and the external auditory canal, was made to expose the temporalis muscle which was retracted and partially excised. Using a dissecting microscope, the right middle cerebral artery was exposed through a 2 mm burr hole drilled 2-3 mm rostral to the fusion of the zygomatic arch with a squamosal bone. Drilling was done under a continuous drip of a 0.9% saline solution to prevent heat injury of the underlying cortex. The dura was cut and retracted to expose the middle cerebral artery.
This artery was occluded in two ways. The first method of occlusion involved permanent cauterization of the artery so that blood flow through the artery was completely eliminated. The second method of occulsion was only temporary (lasting two hours) and involved clamping the artery with microaneurism clips. Test compounds were administered at various times before, during and after occlusion. Each animal's body temperature was maintained at 37° C. during testing using a rectal thermometer connected to a heating pad.
Twenty-four hours after tandem middle cerbral carotid artery occlusion, the test animals were sacrificed and their brains removed and frozen over dry ice. Coronal sections 20 microns thick were cut at half millimeter intervals in a cryostat at -20° C. and dried on a hot plate at 60° C. The sections were then stained with cresyl violet. […] A total infarct volume was then calculated using a computer program that summed all sectional areas measured multiplied by the interval thickness. The lower the infarcted volume obtained, the lower the amount of cell damage caused by the stroke. The level of significance was obtained using Student's "t-test".

[5] = 100 mg/kg orally, 2% acacia, time c (30 min pre, 4 h and 24 h postischemia), control 1.4 ± 0.3
[6] = 100 mg/kg orally, 2% acacia, time c (30 min pre, 4 h and 24 h postischemia), control 2.5 ± 0.3
[7] = 25 mg/kg rat weight × 29, p.o. once daily, read-out: % Inhibition of Uninjected Paw Volume Inflammation, Days 16-30
[8] = read-out: % Inhibition of Uninjected Paw Volume Inflammation, Days 16-30
[9] = 25 mg/kg orally, water, time a (15 min pre, 4 h and 24 h postischemia), control 2.5 ± 0.3
[10] = 100 mg/kg orally, 2% acacia, time c (30 min pre, 4 h and 24 h postischemia), control 2.7 ± 0.2
[11] = 100 mg/kg orally, water, time a (15 min pre, 4 h and 24 h postischemia), control 2.7 ± 0.2
[12] = Rattus norvegicus, read-out: % Inhibition of Uninjected Paw Volume Inflammation, Days 16-30, 25 mg/kg rat weight × 29, p.o. once daily
[13] = 50 mg/kg orally, 2% acacia, time c (30 min pre, 4 h and 24 h postischemia), control 2.71 ± 0.22
[14] = 50 mg/kg orally, 2% acacia, time c (30 min pre, 4 h and 24 h postischemia), control 2.73 ± 0.22
[15] = 100 mg/kg orally, 2% acacia, time a (15 min pre, 4 h and 24 h postischemia), control 2.4 ± 0.4
[16] = 100 mg/kg orally, 2% acacia, time a (15 min pre, 4 h and 24 h postischemia), control 2.9 ± 0.1

CC(C)(C)c1cc(CN2CCCC2)cc(C(C)(C)C)c1O.Cl [4-(1-pyrrolidinomethyl)-2,6-bis(1,1-dimethylethyl)phenol hydrochloride]
Damage Score, Striatum [1, 5]: 1.5 ± 0.4
Damage Score, Hippocampus [2, 6]: 1.2 ± 0.5

CC(C)(C)c1cc(CN2CCOCC2)cc(C(C)(C)C)c1O [4-(4-morpholinylmethyl)-2,6-bis(1,1-dimethylethyl)phenol]
inhibition in vivo at 25 mg/kg [3, 7]: 40.6%
inhibition in vivo at 50 mg/kg [3, 8]: 71.1%

CCNC(C)c1cc(C(C)(C)C)c(O)c(C(C)(C)C)c1.Cl (stereo not drawn) [4-[1-(ethylamino)ethyl]-2,6-bis(1,1-dimethylethyl)phenol hydrochloride]
Damage Score, Striatum ([1]; 50 mg/kg orally, 2% acacia, time c (30 min pre, 4 h and 24 h postischemia), control 1.9 ± 0.4, only 7 rats because of toxicity): 1.5 ± 0.5
toxicity in stroke model (footnote ****) ([2]; 50 mg/kg orally, 2% acacia, time c, data on only 7 rats): data obtained on only 7 rats because of toxicity problems
Damage Score, Hippocampus ([2]; 50 mg/kg orally, 2% acacia, time c (30 min pre, 4 h and 24 h postischemia), control 2.6 ± 0.3, only 7 rats because of toxicity): 0.9 ± 0.4
toxicity of higher doses (footnote ++) ([4]; temporary occlusion, 10% DMSO in saline): higher doses were toxic in this model
Infarct Volume ([4]; temporary occlusion, 10/5 mg/kg i.v. (per hour), 10% DMSO in saline, time d, control 106 ± 15): 92 ± 10 (mm)^3

CN(C)CCc1cc(C(C)(C)C)c(O)c(C(C)(C)C)c1.Cl [4-[2-(dimethylamino)ethyl]-2,6-bis(1,1-dimethylethyl)phenol hydrochloride]
Damage Score, Striatum [1, 9]: 0.9 ± 0.3
Damage Score, Striatum ([1]; 50 mg/kg orally, water, time a (15 min pre, 4 h and 24 h postischemia), control 2.8 ± 0.2): 0.3 ± 0.2
Damage Score, Striatum [1, 10]: 0.0 ± 0.0
Damage Score, Striatum [1, 11]: 0.1 ± 0.0
Damage Score, Hippocampus [2, 9]: 1.6 ± 0.3
Damage Score, Hippocampus ([2]; 50 mg/kg orally, water, time a (15 min pre, 4 h and 24 h postischemia), control 3.0 ± 0.0): 0.8 ± 0.4
Damage Score, Hippocampus [2, 10]: 0.2 ± 0.2
Damage Score, Hippocampus [2, 11]: 0.2 ± 0.2
toxicity of higher doses (footnote ++) ([4]; permanent occlusion, saline): higher doses were toxic in this model
Infarct Volume ([4]; permanent occlusion, 10/5 mg/kg i.v. (per hour), saline, time c, control 154 ± 11): 161 ± 17 (mm)^3
Infarct Volume ([4]; temporary occlusion, 20/5 mg/kg i.v. (per hour), saline, time d, control 84.7 ± 6.4): 77.6 ± 5.5 (mm)^3

CN(C)CCc1cc(C(C)(C)C)c(O)c(C(C)(C)C)c1 [4-[2-(dimethylamino)ethyl]-2,6-bis(1,1-dimethylethyl)phenol]
Damage Score, Striatum [1, 10]: 0.0 ± 0.0
Damage Score, Hippocampus [2, 10]: 0.0 ± 0.0

CNCCc1cc(C(C)(C)C)c(O)c(C(C)(C)C)c1.Cl [4-[2-(methylamino)ethyl]-2,6-bis(1,1-dimethylethyl)phenol hydrochloride]
hypothermia (footnote +++) ([4]; dose of 50/10 i.v., permanent occlusion): severe hypothermia
Infarct Volume ([4]; permanent occlusion, 30/5 mg/kg i.v. (per hour), saline, time c, control 129 ± 14): 130 ± 16 (mm)^3
inhibition in vivo at 25 mg/kg [3, 12]: 72.2%

CNCCc1ccc(O)c(C(C)(C)C)c1.Cl [4-[2-(methylamino)ethyl]-2-(1,1-dimethylethyl)phenol hydrochloride]
Damage Score, Striatum [1, 13]: 1.62 ± 0.35
Damage Score, Hippocampus [2, 14]: 2.78 ± 0.12
inhibition in vivo at 25 mg/kg [3, 12]: 76.6%

CCN(C)Cc1cc(C(C)(C)C)c(O)c(C(C)(C)C)c1 [4-[(N-ethyl-N-methylamino)methyl]-2,6-bis(1,1-dimethylethyl)phenol methanesulfonate]
Damage Score, Striatum [1, 15]: 1.1 ± 0.4
Damage Score, Hippocampus [2, 16]: 1.1 ± 0.5
inhibition in vivo at 25 mg/kg [3, 7]: 26%

CCN(CC)Cc1cc(C(C)(C)C)c(O)c(C(C)(C)C)c1.Cl [4-[(diethylamino)methyl]-2,6-bis(1,1-dimethylethyl)phenol hydrochloride]
Damage Score, Striatum [1, 5]: 1.7 ± 0.6
Damage Score, Hippocampus [2, 6]: 2.0 ± 0.5

CN(C)Cc1cc(C(C)(C)C)c(O)c(C(C)(C)C)c1 [4-[(dimethylamino)methyl]-2,6-bis(1,1-dimethylethyl)phenol methanesulfonate]
Damage Score, Striatum [1, 15]: 0.8 ± 0.3
Damage Score, Hippocampus [2, 16]: 0.9 ± 0.3
Infarct Volume ([4]; temporary occlusion, 30/5 mg/kg i.v. (per hour), saline, time d (15 min before clamp removal, then 24 h), control 97 ± 10): 69 ± 9 (mm)^3

CCNCc1cc(C(C)(C)C)c(O)c(C(C)(C)C)c1 [4-[(ethylamino)methyl]-2,6-bis(1,1-dimethylethyl)phenol nitrate]
Damage Score, Striatum ([1]; 50 mg/kg orally, 2% acacia, time c (30 min pre, 4 h and 24 h postischemia), control 2.30 ± 0.32): 1.26 ± 0.40
Damage Score, Hippocampus ([2]; 50 mg/kg orally, 2% acacia, time c (30 min pre, 4 h and 24 h postischemia), control 2.90 ± 0.04): 1.81 ± 0.36

CC(C)NCc1cc(C(C)(C)C)c(O)c(C(C)(C)C)c1 [4-[(isopropylamino)methyl]-2,6-bis(1,1-dimethylethyl)-phenol hydrochloride]
inhibition in vivo at 25 mg/kg [3, 7]: 4.9%

CCCNCc1cc(C(C)(C)C)c(O)c(C(C)(C)C)c1.Cl [4-[(n-propylamino)methyl]-2,6-bis(1,1-dimethylethyl)phenol hydrochloride]
Damage Score, Striatum ([1]; 50 mg/kg orally, distilled water, time c (30 min pre, 4 h and 24 h postischemia), control 2.53 ± 0.22): 1.05 ± 0.33
Damage Score, Hippocampus ([2]; 50 mg/kg orally, distilled water, time c (30 min pre, 4 h and 24 h postischemia), control 2.96 ± 0.03): 1.48 ± 0.34

CC(C)(C)NCc1cc(C(C)(C)C)c(O)c(C(C)(C)C)c1.Cl [4-{[(1,1-dimethylethyl)amino]methyl}-2,6-bis(1,1dimethylethyl)phenol hydrochloride]
Damage Score, Striatum [1, 13]: 0.75 ± 0.35
Damage Score, Hippocampus [2, 14]: 1.72 ± 0.43
inhibition in vivo at 25 mg/kg [3, 7]: 3.9%

CN(Cc1cc(C(C)(C)C)c(O)c(C(C)(C)C)c1)Cc1cc(C(C)(C)C)c(O)c(C(C)(C)C)c1.Cl [4-{[N-methyl-N-(4-hydroxy-3,5-bis(1,1-dimethylethyl)benzyl)amino]methyl}-2,6-bis(1,1-dimethylethyl)phenol hydrochloride]
Damage Score, Striatum [1, 10]: 1.8 ± 0.4
Damage Score, Hippocampus [2, 10]: 2.9 ± 0.1

CN(Cc1cc(C(C)(C)C)c(O)c(C(C)(C)C)c1)Cc1cc(C(C)(C)C)c(O)c(C(C)(C)C)c1 [4-{[N-methyl-N-(4-hydroxy-3,5-bis(1,1-dimethylethyl)benzyl)amino]methyl}-2,6-bis(1,1-dimethylethyl)phenol]
Damage Score, Striatum [1, 10]: 2.4 ± 0.4
Damage Score, Hippocampus [2, 10]: 2.9 ± 0.2
inhibition in vivo at 50 mg/kg [3, 8]: 77%

CN(C)C(=O)c1cc(C(C)(C)C)c(O)c(C(C)(C)C)c1 [N,N-dimethyl-3,5-bis(1,1-dimethylethyl)-4-hydroxybenzamide]
inhibition in vivo at 50 mg/kg [3, 8]: 64.4%

CC(C)(C)c1cc(C(=O)Nc2ccccc2Cl)cc(C(C)(C)C)c1O [N-2-chlorophenyl-3,5-bis(1,1-dimethylethyl)-4-hydroxy-benzamide]
inhibition in vivo at 50 mg/kg [3, 8]: 8.7%
